Patent US12263172B2, “Toll-like receptor agonists for use in the treatment of hepatitis b” (priority 2019, dated 2025)
Values joined by “and” are separate entries in the source; they are usually repeats but may differ in a detail not shown here. Identical values can stand only once.

Assay: Phase 1 single-ascending dose (Part 1): safety and tolerability in healthy adults
Type: in vivo, human
Description: This ongoing trial is a Phase 1 randomized, double-blind, placebo-controlled study in male and female healthy adult volunteers aged 18-55 years. All volunteers provided written, informed consent.
All volunteers were followed up for 4 weeks and safety and tolerability were continuously assessed throughout the study. All adverse events (AEs) were recorded from the time of consent to the completion visit and were graded using the DAIDS toxicity grading scale. Volunteers also underwent physical examinations, electrocardiograms, vital sign checks and clinical laboratory parameters (chemistry, haematology, urinalysis).

CCCCOc1nc(N)c2[nH]cc(Cc3ccc(CN4CCCC4)cc3)c2n1 [Compound 4]
lab toxicity: Cholesterol (mmol/L), upwards, Grade 2 (single dose 0.6 mg fasted): 0 n (%) | lab toxicity: Creatine kinase (U/L), upwards, Grade 1 (single dose 0.6 mg fasted): 0 n (%) | lab toxicity: Creatine kinase (U/L), upwards, Grade 2 (single dose 0.6 mg fasted): 1 (16.7%) n (%) | lab toxicity: Creatine kinase (U/L), upwards, Grade 4 (single dose 0.6 mg fasted): 0 n (%) | lab toxicity: Glucose (mmol/L), upwards, Grade 1 (single dose 0.6 mg fasted): 1 (16.7%) n (%) | lab toxicity: Glucose (mmol/L), upwards, Grade 2 (single dose 0.6 mg fasted): 1 (16.7%) n (%) | lab toxicity: LDL cholesterol (mmol/L, calculated), upwards, Grade 1 (single dose 0.6 mg fasted): 2 (33.3%) n (%) | lab toxicity: LDL cholesterol (mmol/L, calculated), upwards, Grade 2 (single dose 0.6 mg fasted): 1 (16.7%) n (%) | lab toxicity: LDL cholesterol (mmol/L, calculated), upwards, Grade 3 (single dose 0.6 mg fasted): 0 n (%) | lab toxicity: Lymphocytes (giga/L), downwards, Grade 2 (single dose 0.6 mg fasted): 0 n (%) | lab toxicity: Lymphocytes (giga/L), downwards, Grade 4 (single dose 0.6 mg fasted): 0 n (%) | lab toxicity: Neutrophils, segmented (giga/L), downwards, Grade 1 (single dose 0.6 mg fasted): 0 n (%) | lab toxicity: Neutrophils, segmented (giga/L), downwards, Grade 2 (single dose 0.6 mg fasted): 0 n (%) | lab toxicity: Platelets (giga/L), downwards, Grade 1 (single dose 0.6 mg fasted): 0 n (%) | lab toxicity: Sodium (mmol/L), upwards, Grade 1 (single dose 0.6 mg fasted): 2 (33.3%) n (%) | lab toxicity: Sodium (mmol/L), upwards, Grade 2 (single dose 0.6 mg fasted): 1 (16.7%) n (%) | lab toxicity: Triglycerides (mmol/L), upwards, Grade 1 (single dose 0.6 mg fasted): 4 (66.7%) n (%) | lab toxicity: Triglycerides (mmol/L), upwards, Grade 2 (single dose 0.6 mg fasted): 0 n (%) | lab toxicity: Triglycerides (mmol/L), upwards, Grade 3 (single dose 0.6 mg fasted): 0 n (%) | lab toxicity: Urate (μmol/L), upwards, Grade 1 (single dose 0.6 mg fasted): 0 n (%) | subjects with at least one AE (single dose 0.6 mg fasted): 3 (50.0%) n (%) | subjects with at least one AE for which any study drug or study was permanently stopped (single dose 0.6 mg fasted): 0 n (%) | subjects with at least one AE for which any study drug or study was temporarily stopped (single dose 0.6 mg fasted): 0 n (%) | subjects with at least one AE possibly related to any study drug (single dose 0.6 mg fasted): 1 (16.7%) n (%) | subjects with at least one AE possibly, probably or very likely related to any study drug (single dose 0.6 mg fasted): 1 (16.7%) n (%) | subjects with at least one AE probably related to any study drug (single dose 0.6 mg fasted): 0 n (%) | subjects with at least one AE very likely related to any study drug (single dose 0.6 mg fasted): 0 n (%) | subjects with at least one SAE (single dose 0.6 mg fasted): 0 n (%) | subjects with at least one fatal AE (single dose 0.6 mg fasted): 0 n (%) | subjects with at least one grade 1 AE (single dose 0.6 mg fasted): 3 (50.0%) n (%) | subjects with at least one grade 2 AE (single dose 0.6 mg fasted): 0 n (%) | subjects with at least one grade 3 or 4 AE (single dose 0.6 mg fasted): 0 n (%) | treatment-related AE: Any AE (single dose 0.6 mg fasted): 1 (16.7%) n (%) | treatment-related AE: Chills (single dose 0.6 mg fasted): 0 n (%) | treatment-related AE: Dizziness (single dose 0.6 mg fasted): 0 n (%) | treatment-related AE: General disorders and administration site conditions (single dose 0.6 mg fasted): 0 n (%) | treatment-related AE: Headache (single dose 0.6 mg fasted): 0 n (%) | treatment-related AE: Hypertension (single dose 0.6 mg fasted): 0 n (%) | treatment-related AE: Myalgia (single dose 0.6 mg fasted): 0 n (%) | treatment-related AE: Nervous system disorders (single dose 0.6 mg fasted): 0 n (%) | treatment-related AE: Oropharyngeal pain (single dose 0.6 mg fasted): 0 n (%) | treatment-related AE: Pyrexia (single dose 0.6 mg fasted): 0 n (%) | treatment-related AE: Respiratory, thoracic and mediastinal disorders (single dose 0.6 mg fasted): 1 (16.7%) n (%) | treatment-related AE: Vascular disorder (single dose 0.6 mg fasted): 0 n (%) | vital signs: Respiratory rate (brpm) Grade 1 (single dose 0.6 mg fasted): 3 (50.0%) n (%) | vital signs: Respiratory rate (brpm) Grade 2 (single dose 0.6 mg fasted): 0 n (%) | vital signs: SaO2 (%) 90% to <95% (single dose 0.6 mg fasted): 0 n (%) | vital signs: SaO2 (%) 95% to <98% (single dose 0.6 mg fasted): 4 (66.7%) n (%) | vital signs: Standing DBP (mmHg) Grade 1 (single dose 0.6 mg fasted): 0 n (%) | vital signs: Standing DBP (mmHg) Grade 2 (single dose 0.6 mg fasted): 0 n (%) | vital signs: Standing DBP (mmHg) Grade 3 (single dose 0.6 mg fasted): 0 n (%) | vital signs: Standing DBP (mmHg) Low (single dose 0.6 mg fasted): 0 n (%) | vital signs: Standing SBP (mmHg) Grade 1 (single dose 0.6 mg fasted): 1 (16.7%) n (%) | vital signs: Standing SBP (mmHg) Low (single dose 0.6 mg fasted): 0 n (%) | vital signs: Standing pulse (bpm) High (single dose 0.6 mg fasted): 0 n (%) | vital signs: Standing pulse (bpm) Low (single dose 0.6 mg fasted): 0 n (%) | vital signs: Supine DBP (mmHg) Grade 1 (single dose 0.6 mg fasted): 0 n (%) | vital signs: Supine DBP (mmHg) Low (single dose 0.6 mg fasted): 1 (16.7%) n (%) | vital signs: Supine SBP (mmHg) Grade 1 (single dose 0.6 mg fasted): 1 (16.7%) n (%) | vital signs: Supine SBP (mmHg) Grade 2 (single dose 0.6 mg fasted): 0 n (%) | vital signs: Supine SBP (mmHg) Low (single dose 0.6 mg fasted): 0 n (%) | vital signs: Supine pulse (bpm) Low (single dose 0.6 mg fasted): 1 (16.7%) n (%) | ↑ AST Grade 3 (laboratory abnormality) (single dose 0.6 mg fasted): 0 n (%) | ↑ Amylase Grade 2 (laboratory abnormality) (single dose 0.6 mg fasted): 0 n (%) | ↑ Cholesterol Grade 2 (laboratory abnormality) (single dose 0.6 mg fasted): 0 n (%) | ↑ Creatine kinase Grade 2 (laboratory abnormality) (single dose 0.6 mg fasted): 1 (17) n (%) | ↑ Creatine kinase Grade 4 (laboratory abnormality) (single dose 0.6 mg fasted): 0 n (%) | ↑ Glucose Grade 2 (laboratory abnormality) (single dose 0.6 mg fasted): 1 (17) n (%) | ↑ LDL cholesterol Grade 2 (laboratory abnormality) (single dose 0.6 mg fasted): 1 (17) n (%) | ↑ LDL cholesterol Grade 3 (laboratory abnormality) (single dose 0.6 mg fasted): 0 n (%) | ↑ Lipase Grade 2 (laboratory abnormality) (single dose 0.6 mg fasted): 0 n (%) | ↑ Pancreatic amylase Grade 2 (laboratory abnormality) (single dose 0.6 mg fasted): 0 n (%) | ↑ Potassium Grade 2 (laboratory abnormality) (single dose 0.6 mg fasted): 0 n (%) | ↑ Sodium Grade 2 (laboratory abnormality) (single dose 0.6 mg fasted): 1 (17) n (%) | ↑ Triglycerides Grade 2 (laboratory abnormality) (single dose 0.6 mg fasted): 0 n (%) | ↑ Triglycerides Grade 3 (laboratory abnormality) (single dose 0.6 mg fasted): 0 n (%) | ↓ Bicarbonate Grade 2 (laboratory abnormality) (single dose 0.6 mg fasted): 0 n (%) | ↓ GFR Grade 2 (laboratory abnormality) (single dose 0.6 mg fasted): 0 n (%) | ↓ Lymphocytes Grade 2 (laboratory abnormality) (single dose 0.6 mg fasted): 0 n (%) | ↓ Lymphocytes Grade 4 (laboratory abnormality) (single dose 0.6 mg fasted): 0 n (%) | ↓ Neutrophils Grade 2 (laboratory abnormality) (single dose 0.6 mg fasted): 0 n (%) | ↓ Phosphate Grade 2 (laboratory abnormality) (single dose 0.6 mg fasted): 0 n (%) | subjects with headache (AE) (single dose 1.25 mg): 4 (50.0%) n (%) | subjects with myalgia (AE) (single dose 1.25 mg): 3 (37.5%) n (%) | subjects with pyrexia (AE) (single dose 1.25 mg): 3 (37.5%) n (%) | Any AE (treatment-emergent) (single dose 1.25 mg fasted): 8 (100) n (%) | Back pain Grade 1 (treatment-emergent AE) (single dose 1.25 mg fasted): 1 (13) n (%) | Chills Grade 1 (treatment-emergent AE) (single dose 1.25 mg fasted): 0 n (%) | Contact dermatitis Grade 1 (treatment-emergent AE) (single dose 1.25 mg fasted): 0 n (%) | Dizziness Grade 1 (treatment-emergent AE) (single dose 1.25 mg fasted): 0 n (%) | ECG actual value: Heart rate (bpm) Low (single dose 1.25 mg fasted): 0 n (%) | ECG actual value: QRS (ms) High (single dose 1.25 mg fasted): 1 (12.5%) n (%) | ECG actual value: QTcB (ms) ]450; 480] (single dose 1.25 mg fasted): 1 (12.5%) n (%) | ECG actual value: QTcF (ms) ]450; 480] (single dose 1.25 mg fasted): 1 (12.5%) n (%) | ECG change from reference: QTcB (ms) [30; 60] (single dose 1.25 mg fasted): 3 (37.5%) n (%) and 3 (37.5%)^a n (%) | ECG change from reference: QTcF (ms) [30; 60] (single dose 1.25 mg fasted): 1 (12.5%) n (%) and 1 (12.5%)^a n (%) | Headache Grade 1 (treatment-emergent AE) (single dose 1.25 mg fasted): 4 (50) n (%) | Headache Grade 2 (treatment-emergent AE) (single dose 1.25 mg fasted): 0 n (%) | Hypertension Grade 1 (treatment-emergent AE) (single dose 1.25 mg fasted): 0 n (%) | Hypertension Grade 2 (treatment-emergent AE) (single dose 1.25 mg fasted): 0 n (%) | Myalgia Grade 1 (treatment-emergent AE) (single dose 1.25 mg fasted): 3 (38) n (%) | Oropharyngeal pain Grade 1 (treatment-emergent AE) (single dose 1.25 mg fasted): 2 (25) n (%) | Pyrexia Grade 1 (treatment-emergent AE) (single dose 1.25 mg fasted): 2 (25) n (%) | Pyrexia Grade 2 (treatment-emergent AE) (single dose 1.25 mg fasted): 1 (13) n (%) | URTI Grade 1 (treatment-emergent AE) (single dose 1.25 mg fasted): 2 (25) n (%) | lab toxicity: Amylase (U/L), upwards, Grade 1 (single dose 1.25 mg fasted): 1 (12.5%) n (%) | lab toxicity: Amylase (U/L), upwards, Grade 2 (single dose 1.25 mg fasted): 0 n (%) | lab toxicity: Cholesterol (mmol/L), upwards, Grade 1 (single dose 1.25 mg fasted): 1 (12.5%) n (%) | lab toxicity: Cholesterol (mmol/L), upwards, Grade 2 (single dose 1.25 mg fasted): 0 n (%) | lab toxicity: Creatine kinase (U/L), upwards, Grade 1 (single dose 1.25 mg fasted): 0 n (%) | lab toxicity: Creatine kinase (U/L), upwards, Grade 2 (single dose 1.25 mg fasted): 0 n (%) | lab toxicity: Creatine kinase (U/L), upwards, Grade 4 (single dose 1.25 mg fasted): 0 n (%) | lab toxicity: Glucose (mmol/L), upwards, Grade 1 (single dose 1.25 mg fasted): 3 (37.5%) n (%) | lab toxicity: Glucose (mmol/L), upwards, Grade 2 (single dose 1.25 mg fasted): 1 (12.5%) n (%) | lab toxicity: LDL cholesterol (mmol/L, calculated), upwards, Grade 1 (single dose 1.25 mg fasted): 0 n (%) | lab toxicity: LDL cholesterol (mmol/L, calculated), upwards, Grade 2 (single dose 1.25 mg fasted): 0 n (%) | lab toxicity: LDL cholesterol (mmol/L, calculated), upwards, Grade 3 (single dose 1.25 mg fasted): 1 (12.5%) n (%) | lab toxicity: Lymphocytes (giga/L), downwards, Grade 2 (single dose 1.25 mg fasted): 1 (12.5%) n (%) | lab toxicity: Lymphocytes (giga/L), downwards, Grade 4 (single dose 1.25 mg fasted): 0 n (%) | lab toxicity: Neutrophils, segmented (giga/L), downwards, Grade 1 (single dose 1.25 mg fasted): 2 (25.0%) n (%) | lab toxicity: Neutrophils, segmented (giga/L), downwards, Grade 2 (single dose 1.25 mg fasted): 0 n (%) | lab toxicity: Platelets (giga/L), downwards, Grade 1 (single dose 1.25 mg fasted): 1 (12.5%) n (%) | lab toxicity: Sodium (mmol/L), upwards, Grade 1 (single dose 1.25 mg fasted): 2 (25.0%) n (%) | lab toxicity: Sodium (mmol/L), upwards, Grade 2 (single dose 1.25 mg fasted): 1 (12.5%) n (%) | lab toxicity: Triglycerides (mmol/L), upwards, Grade 1 (single dose 1.25 mg fasted): 3 (37.5%) n (%) | lab toxicity: Triglycerides (mmol/L), upwards, Grade 2 (single dose 1.25 mg fasted): 4 (50.0%) n (%) | lab toxicity: Triglycerides (mmol/L), upwards, Grade 3 (single dose 1.25 mg fasted): 0 n (%) | lab toxicity: Urate (μmol/L), upwards, Grade 1 (single dose 1.25 mg fasted): 0 n (%) | subjects with Grade 2 treatment-related AEs (pyrexia) (single dose 1.25 mg fasted): 1 (12.5%) n (%) | subjects with at least one AE (single dose 1.25 mg fasted): 8 (100%) n (%) | subjects with at least one AE for which any study drug or study was permanently stopped (single dose 1.25 mg fasted): 1 (12.5%) n (%) | subjects with at least one AE for which any study drug or study was temporarily stopped (single dose 1.25 mg fasted): 0 n (%) | subjects with at least one AE possibly related to any study drug (single dose 1.25 mg fasted): 5 (62.5%) n (%) | subjects with at least one AE possibly, probably or very likely related to any study drug (single dose 1.25 mg fasted): 6 (75.0%) n (%) | subjects with at least one AE probably related to any study drug (single dose 1.25 mg fasted): 3 (37.5%) n (%) | subjects with at least one AE very likely related to any study drug (single dose 1.25 mg fasted): 0 n (%)
